Data: patent EP0695187B1, “INHIBITION, CONTROL AND REGRESSION OF ANGIOGENESIS WITH HYALURONIC ACID OR HYALURONIC ACID AND NSAID” (JAGOTEC AG, priority 1993, dated 1994)
Several values for one entry are separate records, joined by “and”; a condition that tells them apart may be missing. Identical values can stand only once.

How the values were obtained:
Type in all cases: in vivo, mice
[1] = system: vasculature within the murine chronic granulomatous air pouch; experiment: murine chronic granulomatous air pouch, carmine vascular cast; dosing daily from induction for 6 days; details: for effect on the tissue vascularity: daily
Method: The Applicants chose a simple model of murine angiogenesis induced with a chronic granulomatous reaction to Freund's complete adjuvant in croton oil. The Applicants assessed this process using a modification of this method by the formation of an intravascular cast incorporating carmine red. Chronic granulomatous air pouches were induced by the sc injection of 3 ml air into anaesthetized mice (25-30 g, Tuck Original) and 0.5 ml Freund's complete adjuvant with 0.1% croton oil 24 hours later. The mice were dosed for 6 days and the vascular content assessed by the formation of a vascular cast. This was formed by the intravenous injection of 1 ml 25% carmine red in 10% gelatin at 40°C into warmed mice. This overcame any pharmacological or temperature-related alterations in peripheral vasomotor tone which may have invalidated the results. The carcasses were chilled and the granulomatous air pouch linings dissected. These were dried at 56°C, weighed, and papain digested. The dye was then be dissolved by the addition of 1 ml 0.05 M NaOH, and the samples were then centrifuged at 2500 g for 20 minutes. After these were filtered, the absorbances were read at 490 nm using a multiwell plate reader (Biotek). The results were then expressed as either µg dye/mg dry weight of tissue. […] On the seventh day after induction the vascularity of the tissue was assessed. […] The formation of a subcutaneous air pouch in the dorsum of mice allows the formation of a lining which responds to produce a chronic inflammatory lesion in response to various antigens, irritants and foreign bodies. It can also be used for the introduction of drugs and various other treatments into the site of inflammation and the collection of inflammatory exudate. […] For this experiment female mice (TO. 25-30g, 10 per group) were lightly anesthetized with hypnorm/hypnoval. Air pouches were formed by the subcutaneous injection of 3 ml of filter-sterilized air, into the dorsum of each mouse. After 24 hours, chronic inflammation was induced in the air pouch lining by the injection of 0.5 ml Freund's complete adjuvant (FCA) supplemented with 0.1% croton oil. Animals were dosed daily from the time o: injection of FCA/croton oil, for 6 Days. At which point the analysis was performed. […] Each mouse was then placed into a water jacketed incubation chamber at 37°C and injected i.v. with 1 ml of 15% carmine dye in 10% gelatin (in Hanks balanced salt solution) with syringe and solution prewarmed to 40°C. Cadavers were then chilled at 4°C for 4 hours. The granulomatous tissue was dissected free and dried in an oven at 56°C for 48 hours. The dried granuloma was weighed and then digested in 9 ml of papain solution (12-Units/ml in 0.05 M phosphate buffer, pH 7.0, supplemented with 0.33g/l N-acetyl cysteine), at 56°C for 48 hours. The digests were then made up to 10 ml with 5.0M NaOH and vortexed, to solubilise the dye and centrifuged. The digests were filtered through 0.2µm cellulose nitrate membranes and […] samples aliquoted into 96 well plates and analyzed for dye content by spectrophotometric analysis at […] using a microplate reader. Vascular volume was calculated as carmine content per mg dry mass of tissue.

[2] = system: vasculature within the murine chronic granulomatous air pouch; experiment: further protocol: air pouch granuloma grown 7 days untreated, then topical daily treatment (regression); details: for VI: mean vascularity index; for Carmine / Dry wt. gran.: mean
Method: In another protocol, the use of the air pouch on the mice was once again employed. Only this time, after formation of the pouches and injection of .5 ml Freund's complete adjuvant (FCA) supplemented with 0.1% croton oil, the granuloma in the mice were permitted to grow for 7 days (they were left unhealed for 1 week). […] The granulomatous tissue was dissected and treated as previously described. The weight of the granuloma (including the carmine red dye) and weight of the carmine red dye (which displaced the blood) were determined for each mouse sacrificed at each stage (after 7, 14 and 21 days). The vascularity index (VI) was calculated and the mean vascularity index was calculated for each group as follows: Vascularity Index (VI) =(weight of carmine red dye in GRANULOMA)/(Weight of GRANULOMA (including carmine red dye)) [formula]

[3] = system: vasculature within the murine chronic granulomatous air pouch; experiment: murine chronic granulomatous air pouch, carmine vascular cast; dosing daily from induction for 6 days; details: Topical, n = 8 (Table Three summary)
[4] = i-pouch, n = 10 (Table Three summary)
[5] = intra-pouch injection, daily 6 days, group mean, N = 10
[6] = 2 week (one week of topical application)
[7] = 3 week (two weeks of topical application)

**Q.** Which results are given for `O=C(O)Cc1ccccc1Nc1c(Cl)cccc1Cl` [diclofenac (diclo), Diclofenac]?
**A.** Carmine dye (ug) Mean [1, 4]: 92.6 µg; ug.dye/mg.gramuloma Mean [1, 4]: 0.7363 ug.dye/mg.gramuloma; effect on the tissue vascularity ([1]; intra-lesional injection, assessed on seventh day (Figure 1(b))): no significant effect; Absorbness / Absorbous ([1]; intra-pouch injection, daily 6 days, absorbance at 490 nm of digest, individual animals, listed as Saline + diclo): 0.773 and 0.242 and 0.730 and 0.400 and 0.409 and 0.262 and 0.402 and 0.468; ug dye mg ([1]; intra-pouch injection, daily 6 days, carmine per mg dry tissue, individual animals, listed as Saline + diclo): 1.194 ug dye mg and 0.320 ug dye mg and 1.577 ug dye mg and 1.050 ug dye mg and 0.674 ug dye mg and 0.442 ug dye mg and 0.526 ug dye mg and 0.471 ug dye mg and 0.586 ug dye mg and 0.520 ug dye mg; Dry wt ([1]; intra-pouch injection, daily 6 days, dried granuloma, individual animals, listed as Saline + diclo): 158 mg and 99 mg (2×) and 124 mg and 162 mg and 170 mg and 122 mg; ug carmine [1, 5]: 92.75 µg; ug dye mg [1, 5]: 0.7363 ug dye mg; ug carmine ([1]; intra-pouch injection, daily 6 days, individual animals, listed as Saline + diclo): 166 µg and 50.5 µg and 156 µg and 104 µg and 86.7 µg and 54.8 µg and 85.2 µg and 63.7 µg and 99.5 µg and 61.3 µg; effect on the tissue vascularity ([1]; topical, assessed on seventh day (Figure 1(a))): no significant effect; VI ([2]; 2 week (one week of topical application), listed as Diclo Alone): 1.3 µg/mg; VI ([2]; 2 week (one week of topical application), listed as aq. cream/Diclo): 1.300 µg/mg; Carmine [2, 6]: 108.63 µg; Dry wt. gran. [2, 6]: 84.41 mg; Carmine [2, 7]: 150.07 µg; Dry wt. gran. [2, 7]: 112.19 mg; Carmine dye (ug) Mean [3]: 187.3 µg; Granuloma dry wt.(mg) Mean [3]: 166.3 mg; ug.dye/mg.gramuloma Mean [3]: 1.216 ug.dye/mg.gramuloma
